Laboratory results from US8785655B2, “Ionic liquid solvents” (Dublin City University, priority 2009, dated 2014).

Legend:
[1] = system: Candida parapsilosis ATCC 22019; test: In vitro antifungal activity, MIC by microdilution (NCCLS M27-A); conditions: CP
[2] = system: Enterococcus sp. J 14365/08; test: Screen against bacteria, MIC/IC80; type: cell-based; conditions: EF
[3] = system: Candida lusitaniae 2446/l; test: In vitro antifungal activity, MIC by microdilution (NCCLS M27-A); conditions: CL
Experimental: (§1) In vitro antifungal activities of the compounds were evaluated on the collection of fungal strains deposited at the Department of Biological and Medical Sciences, Faculty of Pharmacy, Charles University, Czech Republic. All the isolates were maintained on Sabouraud dextrose agar prior to being tested.
(§2) Minimum inhibitory concentrations (MICs) were determined by the microdilution format of the NCCLS M27-A guidelines. […] RPMI 1640 (Sevapharma, Prague) medium supplemented with L-glutamine and buffered with 0.165 M morpholinepropanesulfonic acid to pH 7.0 was used as the test medium. The wells of the microdilution tray contained 100 μl of the RPMI 1640 medium with 2-fold serial dilutions of the compounds (1000 to 0.24 μmol/l for the new compounds) and 100 μl of inoculum suspension. Fungal inoculum in RPMI 1640 was prepared to give a final concentration of 5×103±0.2 cfu·ml-1. The trays were incubated at 35° C. and MICs were read visually for filamentous fungi and photometrically for yeasts as an optical density (OD) at 540 nm after 24 h and 48 h. The MICs were defined as 80% inhibition of the growth of control. MICs were determined twice and in duplicate. The deviations from the usually obtained were no higher than the nearest concentration value up and down the dilution scale.

Candida tropicalis 156 = test: as above; conditions: CT
Experimental: as §1, §2

[4] = system: Staphylococcus epidermidis H 6966/08; test: Screen against bacteria, MIC/IC80; type: cell-based; conditions: SE
[5] = system: Klebsiella pneumoniae J 14368/08 ESBL-positive; test: Screen against bacteria, MIC/IC80; type: cell-based; conditions: KP-E
[6] = system: Staphylococcus aureus H 5996/08 Methiciline-resistant; test: Screen against bacteria, MIC/IC80; type: cell-based; conditions: MRSA
Candida krusei ATCC 6258 = test: In vitro antifungal activity, MIC by microdilution (NCCLS M27-A)
Experimental: as §1, §2

[7] = system: Candida albicans ATCC 90028; test: as above
Experimental: as §1, §2

Candida krusei E28 = test: as above
Candida glabrata 20/l = test: as above; conditions: CG
Experimental: as §1, §2

[8] = system: Pseudomonas aeruginosa CCM 1961; test: Screen against bacteria, MIC/IC80; type: cell-based; conditions: PA
[9] = system: Aspergillus fumigatus 231; test: In vitro antifungal activity, MIC by microdilution (NCCLS M27-A); conditions: AF
[10] = system: Trichophyton mentagrophytes 445; test: as above; conditions: TM
Experimental: as §1, §2

Absidia corymbifera 272 = test: as above; conditions: AC
[11] = system: Candida albicans ATCC 44859; test: as above
Escherichia coli CCM4517 = test: Screen against bacteria, MIC/IC80; type: cell-based; conditions: EC
[12] = system: Staphylococcus aureus CCM 4516/08; test: Screen against bacteria, MIC/IC80; type: cell-based; conditions: SA
[13] = system: Klebsiella pneumoniae D 11750/08; test: Screen against bacteria, MIC/IC80; type: cell-based; conditions: KP

Measured: MIC/IC80

CCOCCOC(=O)[C@H](OC(=O)C[n+]1ccn(C)c1)c1ccccc1 [KG835, R-3-methyl-1-[1-(ethoxyethoxycarbonyl)-1-phenylmethoxycarbonylmethyl]imidazolium bromide]
>1 mM: [1]; 24 h | [1]; 48 h | [2]; 24 h | [2]; 48 h | [3]; 24 h | [3]; 48 h | Candida tropicalis 156; 24 h | Candida tropicalis 156; 48 h | [4]; 24 h | [4]; 48 h | [5]; 24 h | [5]; 48 h | [6]; 24 h | [6]; 48 h | Candida krusei ATCC 6258; CK1, 24 h | Candida krusei ATCC 6258; CK1, 48 h | [7]; CA2, 24 h | [7]; CA2, 48 h | Candida krusei E28; CK2, 24 h | Candida krusei E28; CK2, 48 h | Candida glabrata 20/l; 24 h | Candida glabrata 20/l; 48 h | [8]; 24 h | [8]; 48 h | [9]; 24 h | [9]; 48 h | [10]; 72 h | [10]; 120 h | Absidia corymbifera 272; 24 h | Absidia corymbifera 272; 48 h | [11]; CA1, 24 h | [11]; CA1, 48 h | Escherichia coli CCM4517; 24 h | Escherichia coli CCM4517; 48 h | [12]; 24 h | [12]; 48 h | [13]; 24 h | [13]; 48 h

R-3-methyl-1-[1-(ethoxyethoxycarbonyl)-1-methylmethoxycarbonylmethyl]imidazolium octyl sulphate [KG173]
>1 mM: [1]; 24 h | [1]; 48 h | [2]; 24 h | [2]; 48 h | [3]; 24 h | [3]; 48 h | Candida tropicalis 156; 24 h | Candida tropicalis 156; 48 h | [4]; 24 h | [4]; 48 h | [5]; 24 h | [5]; 48 h | [6]; 24 h | [6]; 48 h | Candida krusei ATCC 6258; CK1, 24 h | Candida krusei ATCC 6258; CK1, 48 h | [7]; CA2, 24 h | [7]; CA2, 48 h | Candida krusei E28; CK2, 24 h | Candida krusei E28; CK2, 48 h | Candida glabrata 20/l; 24 h | Candida glabrata 20/l; 48 h | [8]; 24 h | [8]; 48 h | [9]; 24 h | [9]; 48 h | [10]; 72 h | [10]; 120 h | Absidia corymbifera 272; 24 h | Absidia corymbifera 272; 48 h | [11]; CA1, 24 h | [11]; CA1, 48 h | Escherichia coli CCM4517; 24 h | Escherichia coli CCM4517; 48 h | [12]; 24 h | [12]; 48 h | [13]; 24 h | [13]; 48 h

R-3-methyl-1-[1-(ethoxyethoxycarbonyl)-1-phenylmethoxycarbonylmethyl]imidazolium octyl sulphate [KG301]
>1 mM: [1]; 24 h | [1]; 48 h | [2]; 24 h | [2]; 48 h | [3]; 24 h | [3]; 48 h | Candida tropicalis 156; 24 h | Candida tropicalis 156; 48 h | [4]; 24 h | [4]; 48 h | [5]; 24 h | [5]; 48 h | [6]; 24 h | [6]; 48 h | Candida krusei ATCC 6258; CK1, 24 h | Candida krusei ATCC 6258; CK1, 48 h | [7]; CA2, 24 h | [7]; CA2, 48 h | Candida krusei E28; CK2, 24 h | Candida krusei E28; CK2, 48 h | Candida glabrata 20/l; 24 h | Candida glabrata 20/l; 48 h | [8]; 24 h | [8]; 48 h | [9]; 24 h | [9]; 48 h | [10]; 72 h | [10]; 120 h | Absidia corymbifera 272; 24 h | Absidia corymbifera 272; 48 h | [11]; CA1, 24 h | [11]; CA1, 48 h | Escherichia coli CCM4517; 24 h | Escherichia coli CCM4517; 48 h | [12]; 24 h | [12]; 48 h | [13]; 24 h | [13]; 48 h
